Among the test systems are CCRF-CEM leukemia; SF-295 CNS; NCI-H522 lung; EKVX NSCLC; MCF7 breast; OVCAR-5 ovarian; UACC-257 melanoma; HOP-92 NSCLC; BT-549 breast; SR leukemia.
What all share (experiment): growth of human tumour cells (NCI), 48 h

The results in this text go back to PubChem BioAssay (NCI).

Each structure is given as a SMILES string.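 Five concentrations, 48 hours, 96-well plates. GI50 marks 50% less growth. At the TGI there is no net growth.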

`COc1cc2c(cc1OC)C(C(CCCCCC(CCC(C)C)C1NCCc3cc(OC)c(OC)cc31)CCC(C)C)NCC2` (stereo not drawn): the GI50 was 489 nM with CCRF-CEM leukemia; 1640 nM with SF-295 CNS; 1720 nM in the test with NCI-H522 lung; 1.49 µM in the test with EKVX NSCLC; 651 nM in the test on MCF7 breast; 1.69 µM in the test on OVCAR-5 ovarian. In addition, the GI50 in the test with UACC-257 melanoma was 1630 nM; with HOP-92 NSCLC it was 808 nM; in the test on BT-549 breast it was 1720 nM. Further, the TGI with CCRF-CEM leukemia is 2.13 µM; in the test with SF-295 CNS, 3.43 µM; in the test on NCI-H522 lung, 3.24 µM; with EKVX NSCLC, 3.2 µM; in the test with MCF7 breast, 1.91 µM; in the test with OVCAR-5 ovarian, 3.17 µM. Also, the TGI in the test on UACC-257 melanoma stood at 3.08 µM; in the test on HOP-92 NSCLC it was 2.46 µM; with BT-549 breast, 3.12 µM.
For the compound `O=S1(=O)c2ccccc2N(c2ccccc2)c2nnnn21`, the TGI in the test with CCRF-CEM leukemia is 31 µM; in the test on SF-295 CNS, > 100 µM; in the test on NCI-H522 lung, 38.9 µM; in the test on EKVX NSCLC, > 100 µM; in the test on MCF7 breast it was > 100 µM; with OVCAR-5 ovarian, > 100 µM. In addition, the TGI in the test with UACC-257 melanoma was > 100 µM; in the test with HOP-92 NSCLC it was 88.7 µM; in the test on BT-549 breast, 70.5 µM.
In the case of `CN(C)NC1=C([N+](=O)[O-])C=NN(c2ccccc2)C1`, the TGI with CCRF-CEM leukemia was determined as 4.52 µM; in the test with SR leukemia it was 2.51 µM; with SF-295 CNS, 3.2 µM; with NCI-H522 lung it was 0.343 µM; in the test on EKVX NSCLC, 3.52 µM; with OVCAR-5 ovarian, 3.04 µM. Also, the values for the TGI in the test with UACC-257 melanoma and in the test on HOP-92 NSCLC were 3.57 µM and 3.76 µM, respectively.
Take `COc1ccc(Oc2nc3cc(N)cc(N)c3nc2-c2ccccc2)cc1`: the GI50 with CCRF-CEM leukemia is 2970 nM; with SR leukemia, 18.5 µM; in the test with SF-295 CNS, 23400 nM; with NCI-H522 lung, 31400 nM; with EKVX NSCLC, 24.7 µM; with MCF7 breast, 48200 nM. For the same compound, the GI50 in the test with OVCAR-5 ovarian was 94.5 µM; in the test with UACC-257 melanoma, > 100000 nM; with BT-549 breast, 32100 nM. The TGI was 12.6 µM in the test on CCRF-CEM leukemia; > 100 µM in the test with SR leukemia; 52.4 µM in the test with SF-295 CNS; > 100 µM in the test with NCI-H522 lung; 63.1 µM in the test with EKVX NSCLC; > 100 µM in the test with MCF7 breast. Besides, the TGI in the test with OVCAR-5 ovarian, in the test with UACC-257 melanoma and in the test with BT-549 breast was > 100 µM throughout.
For the compound `Brc1ccccc2cc(-c3ccccc3)nc1-2`, the TGI with CCRF-CEM leukemia was > 48.5 µM; in the test with SF-295 CNS, 48.9 µM; with NCI-H522 lung, 21.7 µM; in the test with EKVX NSCLC, 40.4 µM; in the test on MCF7 breast, 64.8 µM; with OVCAR-5 ovarian, 35 µM. Also, the figures for the TGI in the test with UACC-257 melanoma, in the test with HOP-92 NSCLC and in the test on BT-549 breast were 32 µM, 19.8 µM and 56.5 µM, respectively.
For `c1ccc(C2=NOC3C4CCC(C4)C23)cc1` (stereo not drawn), the TGI in the test with CCRF-CEM leukemia, with SR leukemia, in the test with SF-295 CNS, in the test on NCI-H522 lung, in the test on EKVX NSCLC and in the test on OVCAR-5 ovarian was > 100 µM each time. For the same compound, the TGI in the test on UACC-257 melanoma and with HOP-92 NSCLC was > 100 µM each time.
Turning to `O=C(Oc1ccccc1)N(c1ccccc1)c1ccccc1`, the GI50 with CCRF-CEM leukemia is 37000 nM; in the test with SR leukemia, 29 µM; in the test with SF-295 CNS, 18800 nM; with EKVX NSCLC it was 18.7 µM; with OVCAR-5 ovarian, 45.9 µM; in the test on UACC-257 melanoma it was 26400 nM. Also, the GI50 in the test on HOP-92 NSCLC was 19000 nM; in the test on BT-549 breast, 18200 nM. Moreover, the TGI with CCRF-CEM leukemia was > 100 µM; with SR leukemia, > 100 µM; in the test with SF-295 CNS it was 58.7 µM; in the test with EKVX NSCLC, > 100 µM; in the test on OVCAR-5 ovarian, > 100 µM; in the test on UACC-257 melanoma, 83 µM. The TGI came out at 66.9 µM in the test on HOP-92 NSCLC and 41.2 µM with BT-549 breast.
For the compound `COc1cc(C(=O)/C=C/c2cc(-c3ccc4c(c3)OCO4)n[nH]2)cc(OC)c1OC`, the GI50 was 2000 nM with CCRF-CEM leukemia; 1.2 µM in the test with SR leukemia; 2580 nM with SF-295 CNS; 1590 nM with NCI-H522 lung; 1060 nM in the test on MCF7 breast; 2.63 µM in the test on OVCAR-5 ovarian. The GI50 in the test on UACC-257 melanoma is 2950 nM; in the test on BT-549 breast it was 2020 nM. Also, the TGI turned out to be 5.74 µM with CCRF-CEM leukemia; 5.63 µM with SR leukemia; 10.1 µM in the test on SF-295 CNS; 3.41 µM in the test with NCI-H522 lung; 2.88 µM in the test on MCF7 breast; 9.6 µM in the test on OVCAR-5 ovarian. Moreover, the TGI in the test on UACC-257 melanoma amounted to 9.46 µM; with BT-549 breast, 5 µM.
With `CC[C@@H](C)/C=C(C)/C=C/C(=O)c1c(O)c(-c2ccc(OC(=O)[C@@]34CC[C@@](C)(C(=O)O3)C4(C)C)cc2)cn(O)c1=O`, the GI50 is 1120 nM in the test with CCRF-CEM leukemia; 1.32 µM in the test on SR leukemia; 1990 nM with SF-295 CNS; 1730 nM with NCI-H522 lung; 2.81 µM in the test with EKVX NSCLC; 1820 nM in the test on MCF7 breast. The values for the GI50 in the test with OVCAR-5 ovarian, with UACC-257 melanoma and in the test on HOP-92 NSCLC were 2.79 µM, 1800 nM and 2840 nM, respectively. The TGI in the test on CCRF-CEM leukemia is > 50 µM; with SR leukemia, 7.4 µM; with SF-295 CNS, 26.9 µM; with NCI-H522 lung, > 50 µM; in the test with EKVX NSCLC, > 50 µM; in the test with MCF7 breast, > 50 µM. Moreover, the TGI is > 50 µM in the test with OVCAR-5 ovarian, 36 µM in the test with UACC-257 melanoma and > 50 µM in the test on HOP-92 NSCLC.
For `C[C@@H](Nc1cc(F)cc(F)c1)c1cc(C(=O)N(C)C)cc2c(=O)cc(N3CCOCC3)oc12`, the GI50 in the test on CCRF-CEM leukemia is 27500 nM; with SR leukemia it was 21.9 µM; in the test on SF-295 CNS, 1230 nM; with NCI-H522 lung, 20800 nM; in the test with MCF7 breast, 894 nM; with OVCAR-5 ovarian, 4.16 µM. The results for the GI50 with UACC-257 melanoma, in the test on HOP-92 NSCLC and with BT-549 breast were 2600 nM, < 38.9 nM and 140 nM, respectively. Further, the TGI in the test on CCRF-CEM leukemia was > 100 µM; in the test on SR leukemia, > 100 µM; with SF-295 CNS it was 59.9 µM; with NCI-H522 lung it was > 100 µM; in the test with MCF7 breast it was 99 µM; in the test with OVCAR-5 ovarian, > 100 µM. The TGI with UACC-257 melanoma was > 100 µM; in the test with HOP-92 NSCLC, 13 µM; in the test on BT-549 breast it was 38.4 µM.
